The values that follow come from patent US20230151057A1, “LACTIC ACID BACTERIA GROWTH PROMOTER” (Asahi Group Holdings, Ltd., priority 2020, published 2023).

The test system of this experiment is Lactobacillus gasseri (FERM BP-11331). Put plainly: Growth-promoting effect on Lactobacillus gasseri in modified MRS medium (particle count). The experiment is classed as cell-based. The following applies: Example 1, peptide 0.25 mg/mL, 37° C., 18 hours; for Particle concentration: inoculum 1.0×10^7 cells/mL; for Rate of increase: control without peptide = 100%. An excerpt: Nitrogen sources in MRS medium were reduced to find a medium composition that achieves a total bacterial count of about 1.0×10^8 cell/mL to 1.0×10^9 cell/mL after culturing of each of the six bacterial strains Lactobacillus gasseri (FERNM BP-11331), Lactobacillus acidophilus (FERM BP-4981), Lactobacillus amylovorus (FERM BP-11255), Lactobacillus curvatus (NITE P-02033), Lactobacillus plantarum, and Lactobacillus brevis. This composition, named “modified MRS medium”, was used for the evaluation. Here, for the composition of the MRS medium, a composition described in a medium catalog provided by BD (Becton, Dickinson and Company) was used as a reference. The compositions of the MRS medium and the modified MRS medium are as follows. By chemical synthesis, 28 kinds of candidate peptides having the sequences shown below were provided. Each candidate peptide was added to the modified MRS medium at 0.25 mg/mL to provide a medium to be evaluated. The lactic acid bacterium Lactobacillus gasseri was inoculated at 1.0×10^7 cells/mL to the provided medium to be evaluated, and culture was carried out at a temperature of 37° C. for a culture period of 18 hours. The resulting culture was collected, and subjected to measurement of the particle concentration (particles/mL) as a characteristic value that can be used as an index of the bacterial cell growth, using a particle count analyzer (CDA-1000, Sysmex). The rate of increase (%) was calculated relative to a control value obtained using a medium to which no peptide was added, which was taken as 100%. Using the dipeptide LF (Leu-Phe) and an equimolar mixture of leucine (L) and phenylalanine (F), culture was carried out in the same manner as in Example 1, and the growth-promoting effects of the dipeptide and the amino acid mixture on the lactic acid bacterium were evaluated. Using a dipeptide (LF) as the peptide, the growth-promoting effect on a lactic acid bacterium was evaluated in the same manner except that the concentration of the dipeptide added was 0.1 mg/mL, 0.25 mg/mL, or 1.0 mg/mL.

“HDDKHIIVD (listed as Saccharomyces cerevisiae) [His-Asp-Asp-Lys-His-Ile-Ile-Val-Asp]” displayed a Particle concentration of 2.25e+08 mL⁻¹ and a Rate of increase of 114%. On to Ile-Phe [IF], for which the Particle concentration is 2.01e+08 mL⁻¹ and the Rate of increase is reported as 114%. The corresponding values for Ile-Pro-Gln [IPQ] are 1.82e+08 mL⁻¹ and 99%. For “Ile-Pro-Gly-Ile (IPGI; listed as Saccharomyces cerevisiae)” the same measures were 2.19e+08 mL⁻¹ and 119%. For “Ile-Pro-Ile-Gln (IPIQ; listed as Saccharomyces cerevisiae)” the same measures were 2.11e+08 mL⁻¹ and 115%. “Ile-Pro-Ile-Thr (IPIT; listed as Saccharomyces cerevisiae)” registered a Rate of increase of 121%. As for Ile-Pro-Thr [IPT], the Particle concentration was 1.79e+08 mL⁻¹ and the Rate of increase is 98%.

Ile-Val-Glu [IVE] yielded a Particle concentration of 1.81e+08 mL⁻¹ and a Rate of increase of 96%.

In turn, Leu-Pro-Gln [LPQ] returned a Particle concentration of 1.97e+08 mL⁻¹ and a Rate of increase of 107%. The corresponding values for “Leu-Pro-Leu-Gly (LPLG; listed as Saccharomyces cerevisiae)” are 2.2e+08 mL⁻¹ and 120%. The corresponding values for Leu-Pro-Thr [LPT] are 1.9e+08 mL⁻¹ and 104%. For “Leu-Pro-Val-Leu (LPVL; listed as Saccharomyces cerevisiae)” the same measures were 2.07e+08 mL⁻¹ and 113%. The substance Leu-Val-Glu [LVE] returned a Particle concentration of 1.96e+08 mL⁻¹ and a Rate of increase of 104%. Take “PNVLPETE (listed as Saccharomyces cerevisiae) [Pro-Asn-Val-Leu-Pro-Glu-Thr-Glu]”: the Particle concentration turned out to be 2e+08 mL⁻¹ and the Rate of increase is recorded as 101%. For Phe-Leu [FL] the same measures were 1.98e+08 mL⁻¹ and 112%. Regarding “SEYPPLG (listed as Saccharomyces cerevisiae) [Ser-Glu-Tyr-Pro-Pro-Leu-Gly]”, the Particle concentration is 2.36e+08 mL⁻¹ and the Rate of increase worked out at 119%. The corresponding values for Val-Pro-Ile [VPI] are 2.11e+08 mL⁻¹ and 112%. The substance Val-Pro-Leu [VPL] showed a Particle concentration of 2.01e+08 mL⁻¹ and a Rate of increase of 107%.

In the case of “Val-Pro-Val-Gly (VPVG; listed as Saccharomyces cerevisiae)”, the Particle concentration is 1.76e+08 mL⁻¹ and the Rate of increase turned out to be 102%. “WDESRFQ (listed as Saccharomyces cerevisiae) [Trp-Asp-Glu-Ser-Arg-Phe-Gln]”: the Particle concentration was 2.38e+08 mL⁻¹ and the Rate of increase stood at 120%.
